Experiment [1] deals with T1, integrin αvβ3 (Homo sapiens, UniProt P05106+P06756). In words: AlphaLISA competition assay vs LAP, biotinylated αvβ3. It is filed as binding. (In Alpha technology, singlet oxygen from a donor bead excites a nearby acceptor bead.)
The target of experiment [2] is T2, integrin αvβ6 (Homo sapiens, UniProt P06756+P18564). In words: AlphaLISA competition assay vs LAP, biotinylated αvβ6. It is filed as binding.
The target of experiment [3] is T2, integrin αvβ6. As to the kind of experiment: ELISA competition assay, integrin αvβ6 binding to LAP. Background: An ELISA detects its analyte on a solid surface through an enzyme-linked reagent.
Experiment [4] concerns the target T3, integrin αvβ8 (Homo sapiens, UniProt P06756+P26012). In words: ELISA competition assay, integrin αvβ8 binding to LAP.
Experiment [5] has as its target T1, integrin αvβ3. In words: ELISA competition assay, integrin αvβ3. It is filed as binding.
In experiment [6] the target is T3, integrin αvβ8. In words: AlphaLISA competition assay vs LAP, biotinylated αvβ8. It is filed as binding.
The mark [7] stands for this setting: αvβ6 IC50, ELISA competition vs LAP, mean, n ≥ 3.

The structures appear in SMILES notation. Bridge positions count the residues as written; N and C are the ends. Peptide text beside a SMILES is read from it. Where only a bound is given, the exact number is not on record here.

Broadly, the IC50 is the concentration needed to halve the response being measured. The low end stands for inhibition by little substance, the high end for a need for much substance. `CC[C@H](C)[C@H](NC(=O)[C@@H]1CCCN1C(=O)[C@H](CC(C)C)NC(=O)[C@H](CC(=O)O)NC(=O)CNC(=O)[C@H](CCCNC(=N)N)NC(=O)[C@@H](NC(=O)[C@H](Cc1ccccc1)NC(=O)[C@H](Cc1ccc(O)cc1)NC(=O)[C@@H]1CCC(=O)NCC(=O)NCC(=O)N[C@@H](C)C(=O)NCC(=O)N[C@@H](Cc2c[nH]cn2)C(=O)N[C@@H](C(C)C)C(=O)N2CCC[C@H]2C(=O)N1)C(C)C)C(=O)N[C@@H](CO)C(=O)N[C@@H](Cc1ccccc1)C(=O)N[C@@H](Cc1ccc(O)cc1)C(=O)NCC(=O)O` [lassotide 2] (GGAGHVPEYFVRGDLPISFYG-OH; lactam N-8; C-terminus assumed): the values for the 50% inhibitory concentration (IC50) in experiment [1] and in experiment [2] were 1 nM and 263 nM, respectively.

With `CC[C@H](C)[C@H](NC(=O)[C@@H]1CCCN1C(=O)[C@H](CC(C)C)NC(=O)[C@H](CC(=O)O)NC(=O)CNC(=O)[C@H](CCCNC(=N)N)NC(=O)[C@@H](NC(=O)[C@H](Cc1ccc(O)cc1)NC(=O)[C@@H]1CCC(=O)NCC(=O)NCC(=O)N[C@@H](C)C(=O)NCC(=O)N[C@@H](Cc2c[nH]cn2)C(=O)N[C@@H](C(C)C)C(=O)N2CCC[C@H]2C(=O)N1)C(C)C)C(=O)N[C@@H](CO)C(=O)N[C@@H](Cc1ccccc1)C(=O)N[C@@H](Cc1ccc(O)cc1)C(=O)NCC(=O)O` [lassotide 12] (GGAGHVPEYVRGDLPISFYG-OH; lactam N-8; C-terminus assumed), the concentration for half-maximal inhibition (IC50) in experiment [3] (setting [7]) is 177 nM; in experiment [4] it was 475 nM; in experiment [5], 1 nM.

`CC[C@H](C)[C@H](NC(=O)[C@@H]1CCCN1C(=O)[C@H](CC(C)C)NC(=O)[C@H](CC(=O)O)NC(=O)CNC(=O)[C@H](CCCNC(=N)N)NC(=O)[C@H](Cc1ccccc1)NC(=O)[C@H](Cc1ccc(O)cc1)NC(=O)[C@@H]1CCC(=O)NCC(=O)NCC(=O)N[C@@H](C)C(=O)NCC(=O)N[C@@H](Cc2c[nH]cn2)C(=O)N[C@@H](C(C)C)C(=O)N2CCC[C@H]2C(=O)N1)C(=O)N[C@@H](CO)C(=O)N[C@@H](Cc1ccccc1)C(=O)N[C@@H](Cc1ccc(O)cc1)C(=O)NCC(=O)O` [lassotide 13] (GGAGHVPEYFRGDLPISFYG-OH; lactam N-8; C-terminus assumed): the IC50 was 624 nM in experiment [3] (setting [7]), 221 nM in experiment [4] and 20 nM in experiment [5].

For the compound `CC[C@H](C)[C@@H]1NC(=O)[C@H]([C@@H](C)CC)NC(=O)[C@@H]2CCCN2C(=O)CNC(=O)[C@H](CC(=O)O)NC(=O)[C@H](CO)NC(=O)CNC(=O)CC[C@@H](C(=O)N[C@@H](Cc2ccccc2)C(=O)N[C@@H](Cc2ccccc2)C(=O)N[C@@H](CC(N)=O)C(=O)N2CCC[C@H]2C(=O)N[C@@H](CC(N)=O)C(=O)NCC(=O)N[C@H](C(=O)N[C@@H](CCSC)C(=O)N[C@@H](Cc2c[nH]cn2)C(=O)N[C@@H](Cc2ccc(O)cc2)C(=O)NCC(=O)O)C(C)C)NC1=O` [lassotide 15, klebsidin, reference compound] (GSDGPIIEFFNPNGVMHYG-OH; lactam N-8; C-terminus assumed), the concentration for half-maximal inhibition (IC50) in experiment [3], in experiment [4] and in experiment [5] was more than 10000 nM throughout.

Turning to `CC[C@H](C)[C@@H]1NC(=O)[C@H]([C@@H](C)CC)NC(=O)[C@@H]2CCCN2C(=O)CNC(=O)[C@H](CC(=O)O)NC(=O)[C@H](CO)NC(=O)CNC(=O)CC[C@@H](C(=O)N[C@@H](Cc2ccccc2)C(=O)N[C@@H](CCCNC(=N)N)C(=O)NCC(=O)N[C@@H](CC(=O)O)C(=O)N[C@@H](CC(C)C)C(=O)NCC(=O)N[C@H](C(=O)N[C@@H](CCSC)C(=O)N[C@@H](Cc2c[nH]cn2)C(=O)N[C@@H](Cc2ccc(O)cc2)C(=O)NCC(=O)O)C(C)C)NC1=O` [lassotide 16] (GSDGPIIEFRGDLGVMHYG-OH; lactam N-8; C-terminus assumed), the IC50 amounted to 30 nM in experiment [3] (setting [7]), 214 nM in experiment [4] and 1060 nM in experiment [5].

As to `CC[C@H](C)[C@@H]1NC(=O)[C@H](CO)NC(=O)CC[C@@H](C(=O)N[C@@H](CO)C(=O)N[C@@H](CCSC)C(=O)N[C@@H](CO)C(=O)N[C@@H](CO)C(=O)N[C@@H](CCC(N)=O)C(=O)N[C@H](C(=O)N[C@@H](Cc2ccc(O)cc2)C(=O)N[C@@H](Cc2c[nH]c3ccccc23)C(=O)N2CCC[C@H]2C(=O)O)[C@@H](C)O)NC(=O)[C@H](CCCNC(=N)N)NC(=O)[C@H](CC(C)C)NC(=O)CNC(=O)[C@H](CO)NC(=O)[C@H](CC(=O)O)NC(=O)CNC1=O` [lassotide 17, caulonodin V, reference compound] (SIGDSGLRESMSSQTYWP-OH; lactam N-9; C-terminus assumed), the 50% inhibitory concentration (IC50) in experiment [3] (setting [7]), in experiment [4] and in experiment [5] was more than 10000 nM each time.

As for `CC[C@H](C)[C@H](NC(=O)[C@H](CC(C)C)NC(=O)[C@H](CC(=O)O)NC(=O)CNC(=O)[C@H](CCCNC(=N)N)NC(=O)[C@H](CCCNC(=N)N)NC(=O)[C@H](Cc1ccccc1)NC(=O)[C@H](Cc1ccc(O)cc1)NC(=O)[C@@H]1CCC(=O)NCC(=O)NCC(=O)N[C@@H](C)C(=O)NCC(=O)N[C@@H](Cc2c[nH]cn2)C(=O)N[C@@H](C(C)C)C(=O)N2CCC[C@H]2C(=O)N1)C(=O)N[C@@H](CO)C(=O)N[C@@H](Cc1ccccc1)C(=O)N[C@@H](Cc1ccc(O)cc1)C(=O)NCC(=O)O` [lassotide 20] (GGAGHVPEYFRRGDLISFYG-OH; lactam N-8; C-terminus assumed), the IC50 is 17 nM in experiment [2] and 38 nM in experiment [6].

Take `CC[C@H](C)[C@H](NC(=O)[C@H](CC(C)C)NC(=O)[C@H](CC(=O)O)NC(=O)CNC(=O)[C@H](CCCNC(=N)N)NC(=O)[C@H](Cc1ccc(O)cc1)NC(=O)[C@H](Cc1ccccc1)NC(=O)[C@H](Cc1ccc(O)cc1)NC(=O)[C@@H]1CCC(=O)NCC(=O)NCC(=O)N[C@@H](C)C(=O)NCC(=O)N[C@@H](Cc2c[nH]cn2)C(=O)N[C@@H](C(C)C)C(=O)N2CCC[C@H]2C(=O)N1)C(=O)N[C@@H](CO)C(=O)N[C@@H](Cc1ccccc1)C(=O)N[C@@H](Cc1ccc(O)cc1)C(=O)NCC(=O)O` [lassotide 22] (GGAGHVPEYFYRGDLISFYG-OH; lactam N-8; C-terminus assumed): the IC50 in experiment [2] is 198 nM; in experiment [6] it was 78 nM.

Consider `CC(C)C[C@H](NC(=O)[C@H](CC(=O)O)NC(=O)CNC(=O)[C@H](CCCNC(=N)N)NC(=O)[C@@H](NC(=O)[C@H](Cc1ccccc1)NC(=O)[C@H](Cc1ccc(O)cc1)NC(=O)[C@@H]1CCC(=O)NCC(=O)NCC(=O)N[C@@H](C)C(=O)NCC(=O)N[C@@H](Cc2c[nH]cn2)C(=O)N[C@@H](C(C)C)C(=O)N2CCC[C@H]2C(=O)N1)C(C)C)C(=O)N[C@@H](C)C(=O)N[C@@H](CO)C(=O)N[C@@H](Cc1ccccc1)C(=O)N[C@@H](Cc1ccc(O)cc1)C(=O)NCC(=O)O` [lassotide 23] (GGAGHVPEYFVRGDLASFYG-OH; lactam N-8; C-terminus assumed), for which the IC50 turned out to be 27 nM in experiment [2] and 51 nM in experiment [6].

In the case of `CC(C)C[C@H](NC(=O)[C@H](CC(=O)O)NC(=O)CNC(=O)[C@H](CCCNC(=N)N)NC(=O)[C@@H](NC(=O)[C@H](Cc1ccccc1)NC(=O)[C@H](Cc1ccc(O)cc1)NC(=O)[C@@H]1CCC(=O)NCC(=O)NCC(=O)N[C@@H](C)C(=O)NCC(=O)N[C@@H](Cc2c[nH]cn2)C(=O)N[C@@H](C(C)C)C(=O)N2CCC[C@H]2C(=O)N1)C(C)C)C(=O)N[C@@H](Cc1ccc(O)cc1)C(=O)N[C@@H](CO)C(=O)N[C@@H](Cc1ccccc1)C(=O)N[C@@H](Cc1ccc(O)cc1)C(=O)NCC(=O)O` [lassotide 25] (GGAGHVPEYFVRGDLYSFYG-OH; lactam N-8; C-terminus assumed), the IC50 amounted to 295 nM in experiment [2] and 205 nM in experiment [6].

As to `CC(C)C[C@H](NC(=O)[C@H](CC(=O)O)NC(=O)CNC(=O)[C@H](CCCNC(=N)N)NC(=O)[C@@H](NC(=O)[C@H](Cc1ccccc1)NC(=O)[C@H](Cc1ccc(O)cc1)NC(=O)[C@@H]1CCC(=O)NCC(=O)NCC(=O)N[C@@H](C)C(=O)NCC(=O)N[C@@H](Cc2c[nH]cn2)C(=O)N[C@@H](C(C)C)C(=O)N2CCC[C@H]2C(=O)N1)C(C)C)C(=O)N[C@@H](Cc1c[nH]c2ccccc12)C(=O)N[C@@H](CO)C(=O)N[C@@H](Cc1ccccc1)C(=O)N[C@@H](Cc1ccc(O)cc1)C(=O)NCC(=O)O` [lassotide 26] (GGAGHVPEYFVRGDLWSFYG-OH; lactam N-8; C-terminus assumed), the values for the half-maximal inhibitory concentration (IC50) in experiment [2] and in experiment [6] were 24 nM and 85 nM, respectively.

Turning to `CC(C)C[C@H](NC(=O)[C@H](CC(=O)O)NC(=O)CNC(=O)[C@H](CCCNC(=N)N)NC(=O)[C@@H](NC(=O)[C@H](Cc1ccccc1)NC(=O)[C@H](Cc1ccc(O)cc1)NC(=O)[C@@H]1CCC(=O)NCC(=O)NCC(=O)N[C@@H](C)C(=O)NCC(=O)N[C@@H](Cc2c[nH]cn2)C(=O)N[C@@H](C(C)C)C(=O)N2CCC[C@H]2C(=O)N1)C(C)C)C(=O)N[C@@H](CCC(=O)O)C(=O)N[C@@H](CO)C(=O)N[C@@H](Cc1ccccc1)C(=O)N[C@@H](Cc1ccc(O)cc1)C(=O)NCC(=O)O` [lassotide 27] (GGAGHVPEYFVRGDLESFYG-OH; lactam N-8; C-terminus assumed), the values for the concentration for half-maximal inhibition (IC50) in experiment [2] and in experiment [6] were 141 nM and 264 nM, respectively.

As for `CC[C@H](C)[C@H](NC(=O)[C@H](CC(C)C)NC(=O)[C@H](CC(=O)O)NC(=O)CNC(=O)[C@H](CCCNC(=N)N)NC(=O)[C@@H](NC(=O)[C@H](Cc1ccccc1)NC(=O)[C@H](Cc1ccc(O)cc1)NC(=O)[C@@H]1CCC(=O)NCC(=O)NCC(=O)N[C@@H](Cc2ccccc2)C(=O)NCC(=O)N[C@@H](Cc2c[nH]cn2)C(=O)N[C@@H](C(C)C)C(=O)N2CCC[C@H]2C(=O)N1)C(C)C)C(=O)N[C@@H](CO)C(=O)N[C@@H](Cc1ccccc1)C(=O)N[C@@H](Cc1ccc(O)cc1)C(=O)NCC(=O)O` [lassotide 33] (GGFGHVPEYFVRGDLISFYG-OH; lactam N-8; C-terminus assumed), the results for the IC50 in experiment [2] and in experiment [6] were 347 nM and 125 nM, respectively.
